# Measured values published in ChEMBL document CHEMBL1148396, “Structure-activity relationships of N-acyl pyrroloquinolone PDE-5 inhibitors” (J Med Chem, 2004).
# Biological target: cGMP-specific 3',5'-cyclic phosphodiesterase (Homo sapiens, UniProt O76074)
# Experiment: Inhibitory activity against human Phosphodiesterase 5
row,Ki [nM],Structure (SMILES)
1,0.29,O=C(OCc1ccncc1)N1Cc2c(nc3ccccc3c2O)C1c1ccc2c(c1)OCO2 (stereo not drawn)
2,1.06,O=C(NCc1ccccc1)N1Cc2c(nc3ccccc3c2O)C1c1ccc2c(c1)OCO2 (stereo not drawn)
3,0.58,O=C(OCc1ccccc1)N1Cc2c(nc3ccccc3c2O)C1c1ccc2c(c1)OCO2 (stereo not drawn)
4,0.22,O=C(/C=C/c1ccccc1)N1Cc2c(nc3ccccc3c2O)C1c1ccc2c(c1)OCO2 (stereo not drawn)
5,12.5,O=C(Cc1ccccc1)N1Cc2c(nc3ccccc3c2O)C1c1ccc2c(c1)OCO2 (stereo not drawn)
6,118,O=S(=O)(/C=C/c1ccccc1)N1Cc2c(nc3ccccc3c2O)C1c1ccc2c(c1)OCO2 (stereo not drawn)
7,0.23,O=C(OCc1ccncc1)N1Cc2c(nc3ccccc3c2O)[C@H]1c1ccc2c(c1)OCO2
8,0.35,O=C(C#Cc1ccccc1)N1Cc2c(nc3ccccc3c2O)C1c1ccc2c(c1)OCO2 (stereo not drawn)
9,113,O=S(=O)(Cc1ccccc1)N1Cc2c(nc3ccccc3c2O)C1c1ccc2c(c1)OCO2 (stereo not drawn)
10,23.3,Oc1c2c(nc3ccccc13)C(c1ccc3c(c1)OCO3)N(C/C=C/c1ccccc1)C2 (stereo not drawn)
11,11,CN(Cc1ccccc1)C(=O)N1Cc2c(nc3ccccc3c2O)C1c1ccc2c(c1)OCO2 (stereo not drawn)
12,3.48,O=C(OCc1ccncc1)N1Cc2c(nc3ccccc3c2O)[C@@H]1c1ccc2c(c1)OCO2
13,4.53,O=C(CCc1ccccc1)N1Cc2c(nc3ccccc3c2O)C1c1ccc2c(c1)OCO2 (stereo not drawn)
